The text below walks through data of patent US20250241901A1, “ACTIVATION OF MNRR1 / CHCHD2 AS A THERAPEUTIC TARGET FOR MITOCHONDRIA ASSOCIATED DISORDERS” (Wayne State University, priority 2024, published 2025).

Series [1] deals with MNRR1. Description: MNRR1 transcript and protein levels in decidua and placenta of LPS-injected dams. The series is classed as in vivo, mouse. The procedure:
FIGS. 2A-2F. Nitazoxanide prevents preterm delivery and improves neonatal mortality in vivo. (FIG. 2A) Schematic illustration depicting the administration of nitazoxanide (marketed under the commercial name Alinia) and LPS in the murine model of preterm birth. (FIG. 2B) Gestational length of mice was obtained using video-monitoring until delivery (n=6-8 animals). (FIG. 2C) Neonatal mortality was determined by calculating the number of dead pups over total litter size (n=6-8 animals). […] No pups from LPS-injected dams survived beyond week 0 of birth. (FIG. 2E) MNRR1 transcript levels were measured in mouse decidual tissue (17.5 dpc). Actin was used as a housekeeping gene to normalize expression (n=4 animals for all except PBS+N, where n=3). (FIG. 2F) Equal amounts of whole placental lysates were separated on an SDS-PAGE gel and probed for MNRR1 levels. Actin was used as a loading control. Gel is representative of data obtained from 2 animals. […]
Real-time polymerase chain reaction: Total cellular RNA was extracted from mouse placental tissues or HTR8 cells by using a RNeasy Plus Mini Kit (Qiagen, Germantown, MD, USA), according to the manufacturer's instructions. […] Transcript levels were measured by real-time PCR by using SYBR green on an ABI 7500 system. […]

For series [2] the following is noted: single dose of 4 gm, adult humans; cited from earlier work.
Series [3] deals with MELAS patient fibroblasts. As to the kind of experiment: Mitophagy and mitochondrial biogenesis markers in MELAS patient fibroblasts (immunoblot). Format: cell-based, human. Conditions: fibroblasts from three MELAS patients, 10 μM, 48 h. As to the method:
FIGS. 8A-8D: MNRR1 activation using tizoxanide enhances mitochondrial function, mitophagy, and protects from LPS-induced inflammation in MELAS patient fibroblasts. FIG. 8A: Equal amounts of lysates from MELAS patient fibroblast (MF 1, 2, or 3) lysates treated with vehicle (DMSO) or tizoxanide (10 μM) for 48 h were separated on an SDS-PAGE gel and probed for LC3B, PGC1a, MNRR1, MTCO2, TOM20, and phospho-ubiquitin (S65) levels. GAPDH orTubulin was probed as a loading control. FIG. 8B: Oxygen consumption measured from MELAS patient fibroblasts treated with vehicle (DMSO) or tizoxanide (10 μM) for 48 h (n=4 biological replicates, mean±SE). FIG. 8C: Mitochondrial ATP rate measured in MELAS patient fibroblasts treated with vehicle (DMSO) or tizoxanide (10 μM) for 48 h (n=4 biological replicates, mean±SE). […]
Immunoblotting: Immunoblotting was performed as described previously. […] The clear supernatants were transferred to new tubes and quantified using the Bradford reagent with BSA as standard (BioRad, Hercules. CA). […] For detection after immunoblotting, the SuperSignal™ West Pico PLUS substrate (ThermoFisher, Waltham, MA) was used to generate chemiluminescence signal, which was detected with X-Ray film (RadTech, Vassar, MI).
In general terms: A western blot detects proteins with antibodies after separation by electrophoresis.

For series [4], the system named is MELAS patient fibroblasts. Description: Oxygen consumption and mitochondrial ATP rate in MELAS patient fibroblasts. The series is classed as cell-based, human. Conditions: 10 μM, 48 h. The procedure:
FIGS. 8A-8D: MNRR1 activation using tizoxanide enhances mitochondrial function, mitophagy, and protects from LPS-induced inflammation in MELAS patient fibroblasts. FIG. 8A: Equal amounts of lysates from MELAS patient fibroblast (MF 1, 2, or 3) lysates treated with vehicle (DMSO) or tizoxanide (10 μM) for 48 h were separated on an SDS-PAGE gel and probed for LC3B, PGC1a, MNRR1, MTCO2, TOM20, and phospho-ubiquitin (S65) levels. GAPDH orTubulin was probed as a loading control. FIG. 8B: Oxygen consumption measured from MELAS patient fibroblasts treated with vehicle (DMSO) or tizoxanide (10 μM) for 48 h (n=4 biological replicates, mean±SE). FIG. 8C: Mitochondrial ATP rate measured in MELAS patient fibroblasts treated with vehicle (DMSO) or tizoxanide (10 μM) for 48 h (n=4 biological replicates, mean±SE). FIG. 8D: Heatmap representation of ROS and TNFα transcript levels from MELAS patient fibroblasts treated with vehicle (DMSO), LPS (DMSO+500 ng/mL LPS), or LPS plus tizoxanide (10 μM tizoxanide+500 ng/mL LPS) for 24 h (n=4 biological replicates). […]
Intact cellular oxygen consumption and measurement of ATP: Cellular oxygen consumption was measured with a Seahorse XFe24 Bioanalyzer (Agilent). Cells were plated at a concentration of 3.5×10^4 per well a day prior to treatment and basal oxygen consumption was measured 48 h after treatments, as described. […]

Consider `CC(=O)Oc1ccccc1C(=O)Nc1ncc([N+](=O)[O-])s1` [nitazoxanide, Nitazoxanide], for which the “MNRR1 transcript level in the decidua” value in series [1] (17.5 dpc) is reported as “restored the LPS-induced reduction of MNRR1”. Further, the “MNRR1 protein level in the placenta” value in series [1] (whole placental lysates) is listed as “restored the LPS-induced reduction of MNRR1”. The adverse effects result in series [2] was “did not result in any adverse effects”.
Take `O=C(Nc1ncc([N+](=O)[O-])s1)c1ccccc1O` [tizoxanide, Tizoxanide]: in series [3], the “mitochondrial biogenesis (PGC1α, MTCO2, TOM20 levels)” value is on record as “enhances”; the “mitophagy (LCB and pSer-65 ubiquitin levels)” value is given as “enhances”. Also, in series [4], the OCR entry was “enhanced” and the “mitochondrial ATP levels” value was “enhanced”.
